Laboratory results from patent US9765074B2, “Inhibitors of the renal outer medullary potassium channel” (Merck Sharp & Dohme Corp., priority 2013, dated 2017).
pIC50: −log10 of the molar value.

Target: T1, hROMK (hKir1.1) (Homo sapiens, UniProt P48048)
T1 construct: expressed in transfected cells
T1 sequence (P48048 1-391): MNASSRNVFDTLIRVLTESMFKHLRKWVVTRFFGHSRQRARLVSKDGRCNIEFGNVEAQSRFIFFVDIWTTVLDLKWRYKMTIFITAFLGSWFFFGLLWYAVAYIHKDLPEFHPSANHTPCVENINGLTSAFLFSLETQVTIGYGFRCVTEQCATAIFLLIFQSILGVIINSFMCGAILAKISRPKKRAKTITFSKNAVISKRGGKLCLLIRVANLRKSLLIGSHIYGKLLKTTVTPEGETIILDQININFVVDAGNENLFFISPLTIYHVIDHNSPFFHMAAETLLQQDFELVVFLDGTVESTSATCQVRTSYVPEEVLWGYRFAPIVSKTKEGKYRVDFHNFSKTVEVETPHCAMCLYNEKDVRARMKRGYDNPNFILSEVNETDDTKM
Experiment: Thallium Flux Assay (ROMK channel functional thallium flux, FLIPR-Tetra)
Type: cell-based
Conditions: HEK293 cells stably expressing hROMK (hKir1.1); 30 min compound incubation
How it was run: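 Thallium flux read by FluxOR fluorescence ([…]) for ~10 min after adding 3 mM Tl+/0.3 mM K+ final. Stable HEK-hKir1.1 cells were dye-loaded 90 min, exposed to compound 30 min at room temperature in ouabain/probenecid buffer; IC50 relative to a 3 μM control inhibitor.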

SMILES | pIC50
CC1=CC2(CCN(C[C@H](O)c3cnc(-n4cnnn4)cn3)CC2)C(=O)N1C1=CC(=O)OC1 [Example 187, 8-{(2S)-2-hydroxy-2-[5-(1H-tetrazol-1-yl)pyrazin-2-yl]ethyl}-3-methyl-2-(5-oxo-2,5-dihydrofuran-3-yl)-2,8-diazaspiro[4.5]dec-3-en-1-one] | 7.00
CC1=CC2(CCN(C[C@H](O)c3ccc(-n4cnnn4)nn3)CC2)C(=O)N1C1=CC(=O)OC1 [Example 188, 8-{(2S)-2-hydroxy-2-[6-(1H-tetrazol-1-yl)pyridazin-3-yl]ethyl}-3-methyl-2-(5-oxo-2,5-dihydrofuran-3-yl)-2,8-diazaspiro[4.5]dec-3-en-1-one] | 7.30
CC1(C)CC2(CCN(C[C@H](O)c3ccc(-n4cnnn4)nn3)CC2)C(=O)N1C1=CC(=O)OC1 [Example 189, 8-{(2S)-2-hydroxy-2-[6-(1H-tetrazol-1-yl)pyridazin-3-yl]ethyl}-3,3-dimethyl-1-oxo-2-(5-oxo-2,5-dihydrofuran-3-yl)-2-aza-8-azoniaspiro[4.5]decane] | 7.30
CC1(C)CC2(CCN(C[C@@H](O)c3ccc(-n4cnnn4)nn3)CC2)C(=O)N1C1=CC(=O)OC1 [Example 190, 8-{(2R)-2-hydroxy-2-[6-(1H-tetrazol-1-yl)pyridazin-3-yl]ethyl}-3,3-dimethyl-1-oxo-2-(5-oxo-2,5-dihydrofuran-3-yl)-2-aza-8-azoniaspiro[4.5]decane] | 7.30
COCC1=C(N2CCC3(CCN(C[C@H](O)c4ccc(-n5cnnn5)nn4)CC3)C2=O)COC1=O [Example 191, 8-{(2S)-2-hydroxy-2-[6-(1H-tetrazol-1-yl)pyridazin-3-yl]ethyl}-2-[4-(methoxymethyl)-5-oxo-2,5-dihydrofuran-3-yl]-2,8-diazaspiro[4.5]decan-1-one] | 7.15
COCC1=C(N2CCC3(CCN(C[C@H](O)c4cnc(-n5cnnn5)cn4)CC3)C2=O)COC1=O [Example 200, 8-{(2S)-2-hydroxy-2-[5-(1H-tetrazol-1-yl)pyrazin-2-yl]ethyl}-2-[4-(methoxymethyl)-5-oxo-2,5-dihydrofuran-3-yl]-2,8-diazaspiro[4.5]decan-1-one] | 7.10
O=C1C=C(N2C=CC3(CCN(C[C@H](O)c4ccc(-n5cnnn5)nn4)CC3)C2=O)CO1 [Example 201, 8-{(2S)-2-hydroxy-2-[6-(1H-tetrazol-1-yl)pyridazin-3-yl]ethyl}-1-oxo-2-(5-oxo-2,5-dihydrofuran-3-yl)-2-aza-8-azoniaspiro[4.5]dec-3-ene] | 6.92
CC1=C(N2CCC3(CC4CCC(C3)N4CCc3ccc(-n4cnnn4)nn3)C2=O)COC1=O [Example 235, (1S,5S)-1′-(4-methyl-5-oxo-2,5-dihydrofuran-3-yl)-2′-oxo-8-{2-[6-(1H-tetrazol-1-yl)pyridazin-3-yl]ethyl}spiro[8-azoniabicyclo[3.2.1]octane-3,3′-pyrrolidine]] | 8.00
CC1=C(N2CCC3(CC4COCC(C3)N4CCc3ccc(-n4cnnn4)nn3)C2=O)COC1=O [Example 239, (1R,5S,9r)-1′-(4-methyl-5-oxo-2,5-(dihydrofuran-3-yl)-2′-oxo-9-{2-[6-(1H-tetrazol-1-yl)pyridazin-3-yl]ethyl}spiro[7-oxa-9-azoniabicyclo[3.3.1]nonane-3,3′-pyrrolidine]] | 6.49
O=C1C=C(N2C=CC3(CCN(CCc4ccc(-n5cnnn5)nn4)CC3)C2=O)CO1 [Example 249, 1-oxo-2-(5-oxo-2,5-dihydrofuran-3-yl)-8-{2-[6-(1H-tetrazol-1-yl)pyridazin-3-yl]ethyl}-2-aza-8-azoniaspiro[4.5]dec-3-ene] | 7.40
CC1=C(N2CCC3(CCN(CCc4cnc(-n5cnnn5)cc4CO)CC3)C2=O)COC1=O [Example 250, 8-{2-[4-(hydroxymethyl)-6-(1H-tetrazol-1-yl)pyridin-3-yl]ethyl}-2-(4-methyl-5-oxo-2,5-dihydrofuran-3-yl)-1-oxo-2-aza-8-azoniaspiro[4.5]decane] | 7.10
CC1=C(N2C=CC3(CCN(CCc4cnc(-n5cnnn5)cn4)CC3)C2=O)COC1=O [Example 251, 2-(4-methyl-5-oxo-2,5-dihydrofuran-3-yl)-1-oxo-8-{2-[5-(1H-tetrazol-1-yl)pyrazin-2-yl]ethyl}-2-aza-8-azoniaspiro[4.5]dec-3-ene] | 7.30

The remaining lines, values ahead:

pIC50 | SMILES
8.00 | CC1=C(N2CCC3(CCN(CCc4ccc(-n5cnnn5)nn4)CC3)C2=O)COC1=O [Example 232, 8-(2-(6-(1H-Tetrazol-1-yl)pyridazin-3-yl)ethyl)-2-(4-methyl-5-oxo-2,5-dihydrofuran-3-yl)-2,8-diazaspiro[4.5]decan-1-one]
8.00 | CC1=C(N2CCC3(CCN(CCc4ccc(-n5cnnn5)nc4)CC3)C2=O)COC1=O [Example 233]
8.00 | CC1=C(N2CCC3(CCN(CCc4cnc(-n5cnnn5)cn4)CC3)C2=O)COC1=O [Example 234, 2-(4-methyl-5-oxo-2,5-dihydrofuran-3-yl)-1-oxo-8-{2-[5-(1H-tetrazol-1-yl)pyrazin-2-yl]ethyl}-2-aza-8-azoniaspiro[4.5]decane]
8.40 | CC1=C(N2CCC3(CCN(CCc4nnc(-n5cnnn5)cc4C)CC3)C2=O)COC1=O [Example 236, 2-(4-methyl-5-oxo-2,5-dihydrofuran-3-yl)-8-{2-[4-methyl-6-(1H-tetrazol-1-yl)pyridazin-3-yl]ethyl}-1-oxo-2-aza-8-azoniaspiro[4.5]decane]
7.70 | CC1=C(N2CCC3(CCN(CCc4cc(C)c(-n5cnnn5)nn4)CC3)C2=O)COC1=O [Example 237, 2-(4-methyl-5-oxo-2,5-dihydrofuran-3-yl)-8-{2-[5-methyl-6-(1H-tetrazol-1-yl)pyridazin-3-yl]ethyl}-1-oxo-2-aza-8-azoniaspiro[4.5]decane]
8.00 | CC1=C(N2CCC3(CCN(CCc4ccc(-n5cnnn5)cn4)CC3)C2=O)COC1=O [Example 238, 2-(4-methyl-5-oxo-2,5-dihydrofuran-3-yl)-1-oxo-8-{2-[5-(1H-tetrazol-1-yl)pyridin-2-yl]ethyl}-2-aza-8-azoniaspiro[4.5]decane]
7.70 | C[C@H]1CC2(CCN(CCc3cnc(-n4cnnn4)cn3)CC2)C(=O)N1C1=CC(=O)OC1 [Example 246, 3(S)-methyl-1-oxo-2-(5-oxo-2,5-dihydrofuran-3-yl)-8-{2-[5-(1H-tetrazol-1-yl)pyrazin-2-yl]ethyl}-2-aza-8-azoniaspiro[4.5]decane]
7.70 | CC1=C(N2C=CC3(CCN(CCc4ccc(-n5cnnn5)nn4)CC3)C2=O)COC1=O [Example 247, 2-(4-methyl-5-oxo-2,5-dihydrofuran-3-yl)-1-oxo-8-{2-[6-(1H-tetrazol-1-yl)pyridazin-3-yl]ethyl}-2-aza-8-azoniaspiro[4.5]dec-3-ene]
7.70 | CC1=C(N2C=CC3(CCN(CCc4nnc(-n5cnnn5)cc4C)CC3)C2=O)COC1=O [Example 248, 2-(4-methyl-5-oxo-2,5-dihydrofuran-3-yl)-8-{2-[4-methyl-6-(1H-tetrazol-1-yl)pyridazin-3-yl]ethyl}-1-oxo-2-aza-8-azoniaspiro[4.5]dec-3-ene]
8.00 | CC1=C(N2CCC3(CCN(CCc4ncc(-n5cnnn5)nc4C)CC3)C2=O)COC1=O [Example 252, 2-(4-methyl-5-oxo-2,5-dihydrofuran-3-yl)-8-{2-[3-methyl-5-(1H-tetrazol-1-yl)pyrazin-2-yl]ethyl}-2,8-diazaspiro[4.5]decan-1-one]
7.70 | CC1=CN(C2=C(C)C(=O)OC2)C(=O)C12CCN(CCc1ccc(-n3cnnn3)nn1)CC2 [Example 253, 4-methyl-2-(4-methyl-5-oxo-2,5-dihydrofuran-3-yl)-1-oxo-8-{2-[6-(1H-tetrazol-1-yl)pyridazin-3-yl]ethyl}-2-aza-8-azoniaspiro[4.5]dec-3-ene]
7.52 | COC(=O)c1cc(-n2cnnn2)ncc1CCN1CCC2(CC1)CCN(C1=C(C)C(=O)OC1)C2=O [Example 254, methyl 5-(2-(2-(4-methyl-5-oxo-2,5-dihydrofuran-3-yl)-1-oxo-2,8-diazaspiro[4.5]decan-8-yl)ethyl)-2-(1H-tetrazol-1-yl)isonicotinate]
7.70 | CC1=CC2(CCN(CCc3ccc(-n4cnnn4)nn3)CC2)C(=O)N1C1=CC(=O)OC1 [Example 255, 3-methyl-2-(5-oxo-2,5-dihydrofuran-3-yl)-8-{2-[6-(1H-tetrazol-1-yl)pyridazin-3-yl]ethyl}-2,8-diazaspiro[4.5]dec-3-en-1-one]
7.52 | CC1=CN(C2=C(C)C(=O)OC2)C(=O)C12CCN(CCc1nnc(-n3cnnn3)cc1C)CC2 [Example 256, 4-methyl-2-(4-methyl-5-oxo-2,5-dihydrofuran-3-yl)-8-{2-[4-methyl-6-(1H-tetrazol-1-yl)pyridazin-3-yl]ethyl}-1-oxo-2-aza-8-azoniaspiro[4.5]dec-3-ene]
8.52 | Cc1nc(-n2cnnn2)cnc1CCN1CCC2(CC1)C[C@H](C)N(C1=CC(=O)OC1)C2=O [Example 261, (3S)-3-methyl-8-{2-[3-methyl-5-(1H-tetrazol-1-yl)pyrazin-2-yl]ethyl}-2-(5-oxo-2,5-dihydrofuran-3-yl)-2,8-diazaspiro[4.5]decan-1-one]
8.40 | Cc1cc(-n2cnnn2)nnc1CCN1CCC2(CC1)C[C@H](C)N(C1=CC(=O)OC1)C2=O [Example 262, (3S)-3-methyl-8-{2-[4-methyl-6-(1H-tetrazol-1-yl)pyridazin-3-yl]ethyl}-2-(5-oxo-2,5-dihydrofuran-3-yl)-2,8-diazaspiro[4.5]decan-1-one]
